1 compound from patent publication US20130236619A1, “ANTI-MICROBIAL FOOD PROCESSING COMPOSITIONS INCLUDING CERAGENIN COMPOUNDS AND METHODS OF USE” (Brigham Young University, priority 2012, published 2013) can be followed below.

The test system of test [1] is Salmonella bacteria. The test can be described thus: Example 2: Salmonella inoculated poultry carcasses dipped in wash composition. As to conditions: peracetic acid wash composition. As for the experimental part: (§1) Example 2 was performed to determine the effectiveness of an anti-microbial wash composition including a ceragenin compound in controlling growth of Salmonella bacteria by fighting off a Salmonella inoculation. Example 3 was similarly performed to determine the effectiveness of the wash composition in controlling growth of Campylobacter bacteria by fighting off a Campylobacter inoculation. Examples 2 and 3 simulate the effectiveness of the present anti-microbial wash compositions to kill Salmonella and Campylobacter on a poultry carcass where the poultry carcass has become contaminated with Salmonella bacteria or Campylobacter bacteria.
(§2) A total of 15 poultry carcasses (chicken carcasses) were sampled for these tests. The 15 poultry carcasses were divided into five groups of three each. Three carcasses were left untreated to serve as a negative control in order to observe natural levels of bacteria present on the carcass. The remaining 12 carcasses were then inoculated with 1 mL of Salmonella and 1 mL of Campylobacter. The carcasses were allowed to dry for 20 minutes in order for the bacteria to adhere to the surface of the poultry carcasses. One group of three of the inoculated poultry carcasses, designated the positive control, were then rinsed with a wash composition including no anti-microbial agent to determine the level of bacteria after inoculation. […]

Test [2] has as its system Campylobacter bacteria. The test can be described thus: Example 3: Campylobacter inoculated poultry carcasses dipped in wash composition. The following applies: peracetic acid wash composition. The protocol:
as §1, §2

The test system of test [3] is spoilage microorganisms. The test can be described thus: Example 1: shelf-life of poultry carcasses dipped in wash composition. As to conditions: wash composition including 100 ppm peracetic acid. The protocol: A study was performed to determine the effectiveness of an anti-microbial rinse composition including relatively low concentrations of a ceragenin compound in controlling growth of bacteria and extending shelf-life of a poultry food product. Three different wash compositions were prepared. Aqueous wash composition 1 (the control) included no ceragenin compound or other anti-microbial agent. Aqueous wash composition 1 was simply tap water. […] The ceragenin compound employed was CSA-44. Poultry carcasses (chicken carcasses) were dipped (e.g., immersed) for 30 seconds into the given wash composition and mechanically agitated to mimic the action of a finishing chiller used in commercial processing. After the 30 second application time, the carcasses were immediately vacuum packaged and stored in a refrigerator at 4° C. Three carcasses from each treatment were tested every third day beginning at day 0 and ending at day 21 to monitor their associated levels of microorganisms.
Poultry is considered to be spoiled when it reaches a level of 10^6 Colony Forming Units (“CFUs”)/ml of spoilage microorganisms in the rinsate. The control, i.e., poultry carcasses treated with wash composition 1, reached this limit on day 12. […] By day 18, the poultry carcasses treated with wash composition 2 had exceeded this limit with a value of about 10^6.5 CFUs/ml. […]

Structures are written as SMILES.

Regarding `CC(=O)OO` [peracetic acid], the “reduction of the presence of Salmonella bacteria” value in test [1] is listed as “effective in reducing”. The “reduction of the presence of Campylobacter bacteria” value in test [2] is “effective in reducing”. Further, the “extension of shelf-life relative to a control wash composition” value in test [3] is on record as “no extension of shelf-life”.
